# Assay results published in ChEMBL document CHEMBL3507680, “University of Dundee, Gates Library screen for HepG2 cell viability”.
# Assay: Human HepG2 cell viability assay in 384 well format
# Format: toxicity, cell-based
# Set-up: dose 125 nL, time 70.5 hour; concentration not given beside the values
# Conditions: HepG2 cells, read-out: Inhibition
row,Structure (SMILES),cytotoxicity at 70.5 h [%]
1,COc1ccc(F)cc1C(=O)C1CCCN(Cc2cnc(C)s2)C1 (stereo not given),-11.8
2,COc1ccccc1Oc1ncccc1CNC(=O)[C@H](N)CC(C)(C)C,-5.62
3,C[C@@H]1CCC[C@H](C)N1CC(=O)N1CCc2[nH]c(-c3ccccc3)nc2C1,27
4,CCc1nccc(CN2CCC(CNC(=O)[C@H]3CC[C@H](C)CC3)C2)n1 (stereo not given in full),27.6
5,CO[C@@]1(C)C[C@@H](O)C12CCN(C(=O)CCn1c(C)cccc1=O)CC2,-4.42
6,Cn1ccnc1-c1cn(CCCc2csc(N)n2)nn1,-15.7
7,CCc1cc(N2CCN3CCCCC3C2)n2nccc2n1 (stereo not given),-8.87
8,CN1[C@H]2CC[C@@H]1CN(C(=O)c1ccc(-c3ccccc3)[nH]1)CC2,-2.64
9,Cc1cnccc1CN1CCN(C)C2(CCC(=O)N(CC3CC3)CC2)C1 (stereo not given),-1.45
10,COCCN(C)C[C@@H]1CN(C(=O)c2cccc(Cl)c2)C[C@@H]1CO,-13.7
11,Cc1cccc2nc(-c3nc4c([nH]3)CCCNC4=O)cn12,16
12,O=C(c1ccc(Cl)cc1)N1CCC2(CC1)C(=O)Nc1ccccc12,14.3
13,O=C(N1CCCC1)N1CCC(Nc2ccncn2)CC1,-3.32
14,COc1ccc(/C=C/CN2CCC3(CC2)CN(C)C(=O)O3)cc1,-6.12
15,COc1ccc2c(C)nc(N3C[C@@H](C)O[C@@H](C)C3)nc2c1,-16.1
16,CC(=O)NCCNc1nc(-c2ccccn2)nc2c1c(C)nn2C,1.86
17,CN1CCC2(CCCN(S(=O)(=O)c3ccc(-c4cnco4)s3)C2)C1 (stereo not given),-6.76
18,CCn1cc(CN2C[C@H]3CC[C@@H]2CN(C(=O)C2CCC2)C3)cn1,-6.91
19,COCCn1ccnc1C1CCN(C(=O)C(O)c2ccc(F)cc2)CC1 (stereo not given),-5.34
20,COc1cccn(CC(=O)N(C)CCC2CCOCC2)c1=O,25
21,O=C(NCCCO)c1cnc(-c2ccccc2)nc1O,-2.27
22,O=C(Nc1ccc2occc2c1)N1CCCC(O)(CO)CC1 (stereo not given),-1.52

row,Structure (SMILES),cytotoxicity at 70.5 h [%]
1,C=C(C)COc1cccc(C(=O)NC(C)c2nnn[nH]2)c1 (stereo not given),18.4
2,COc1ccc(-c2nc(CN3CCCC(OC)C3)c(C)o2)c(F)c1 (stereo not given),10.8
3,NC1CCCc2nc(-c3ccccc3)ncc21 (stereo not given),-8.86
4,CCCOCCn1ncc(N2CCCC2)cc1=O,-1.75
5,COc1cc(-c2nc(CN(CCO)CCO)c(C)o2)ccc1F,2.15
6,C[C@@H]1CN(CCOCc2ccccc2)CC[C@@]1(O)C1CCC1,37.7
7,Cc1ccsc1[C@@H]1CCN(C(=O)c2ccc(-c3cc[nH]n3)cc2)C[C@H]1O,-10.8
8,Cc1nc(CN2CCCC(Cn3cc(CCO)nn3)C2)c2ccccn12 (stereo not given),-5.43
9,O=C(COc1ccccc1O)N1CCOC(C(F)(F)F)C1 (stereo not given),17.8
10,Cn1ncc2c(NC3CCSC3)nc(-c3ccncc3)nc21 (stereo not given),3.97
11,Cc1n[nH]c(C)c1CCNC(=O)Nc1ccc2c(c1)COC2,-19
12,Cc1ccc(-n2cccn2)cc1S(=O)(=O)N1C[C@H](C2CC2)[C@@H](N)C1,11.6
13,O=c1[nH]cnc2c1CCN(S(=O)(=O)c1ccc(Cl)cc1)C2,-11.8
14,CCc1ccc(CN2CCNC(C(=O)N3CCN(C)CC3)C2)nc1 (stereo not given),-0.217
15,Cc1ncsc1CCCNC(=O)C1CC2(CCNCC2)CN1C (stereo not given),13
16,CC(C)[C@@H](C)NC1CCN(c2ccc(-n3ccnc3)cc2)CC1,-12.5
17,C=C(C)COc1cccc(C(=O)N(CC)Cc2nc(COC)no2)c1,-7.82
18,COc1cccc(CC(=O)N2CCC(Cc3nnc(SC)n3C)CC2)c1,-23.6
19,CCCn1ncnc1C(C)NC(=O)C1CCN(CC(N)=O)CC1 (stereo not given),-6.92
20,CN1C[C@H]2CNC[C@@]2(C(=O)NC2CCN(c3ncccc3C#N)CC2)C1,1.46
21,CCOCc1nc2c(c(N(C)Cc3nonc3C)n1)CCNCC2,-11.4
22,Nc1nc2c(c(N3CCC(CCn4cccn4)CC3)n1)CCNCC2,-5.53

row,Structure (SMILES),cytotoxicity at 70.5 h [%]
1,Cc1ncc2c(c1CNC(=O)C1(c3ccc(F)cc3)CC1)CCNC2,-5.4
2,O=C(c1cc(-n2cccn2)ccc1Cl)N1CCC(N2CCCC2=O)CC1,-9.31
3,CNc1ncc(CN(C)C(=O)c2cccc(-n3cnnc3)c2)cn1,11.7
4,CC(C)c1ccc(CC(=O)N2CCCC3(CN(C)C(=O)O3)C2)cc1 (stereo not given),22.5
5,CCc1ccc(CN(C)C(=O)c2ccc(CSc3nnc[nH]3)o2)nc1,-11.2
6,CC(C)C1CN(c2ncccc2Cl)CCC(=O)N1Cc1ccc(F)cc1 (stereo not given),4.1
7,CN1CCN(Cc2noc(CC3CCc4ccccc43)n2)CC1 (stereo not given),-7.61
8,O=C(c1ccccn1)N1C[C@@H]2CC[C@H](C1)N(C(=O)c1ccsc1)C2,26.5
9,Cc1[nH]ccc1C(=O)N1CCCC(c2ccc(C(=O)O)cc2)C1 (stereo not given),-22.6
10,O=C(N[C@@H]1CCCNC1)C1(Oc2ccc(Cl)cc2)CCNCC1,13.1
11,O=C(O)[C@@H]1CN(CC2CCC2)C[C@H]1c1ccc(F)cc1,-7.16
12,Cc1nn(C)c2nc(N(C)CCN(C)C)sc12,-9.29
13,CCc1cc(C(=O)N2CCC3(CCCN(CC4CC4)C3=O)C2)cs1 (stereo not given),6.71
14,Cc1c[nH]c(C(=O)N2CCCC2c2ccc(C(=O)N3CCSCC3)s2)n1 (stereo not given),-11.4
15,CCC(OC)C(=O)NCc1cc2n(n1)CCCN(C1CCCCC1)C2 (stereo not given),-9.86
16,CC(=O)NCc1nnc2n1CCN(c1ncnc3c(C)csc13)CC2,27
17,O=C(O)C1CN(Cc2cnc(C3CCCCC3)nc2)CCO1 (stereo not given),17.1
18,O=C(CC1CCCC1)N1CCC2(CC1)[C@H](O)C[C@@H]2O,-12.2
19,Cc1ccc(CCNc2ncc(C)c(-c3ccnn3C)n2)s1,-8.02
20,CN(CCC1CCCCO1)c1nncc(-c2ccccc2)n1 (stereo not given),-0.965
21,CC(C)(O)CCc1cccc(C(=O)NCCC2CCOC2)c1 (stereo not given),-0.764
22,COc1ccc(OC)c(C2CCN(C(=O)C3CCN(C(C)C)CC3)C2)c1 (stereo not given),-8.95

row,Structure (SMILES),cytotoxicity at 70.5 h [%]
1,CC[C@@]1(O)CCN(C(=O)c2ccc(-n3cnnc3)cc2)C[C@H]1O,20.9
2,Clc1ccccc1OC1CN(CC2CCOC2)C1 (stereo not given),8.25
3,Cc1ccc(CN2CCN(C(=O)C3CCC3)[C@@H]3CS(=O)(=O)C[C@@H]32)cc1C,-0.626
4,CCS(=O)(=O)c1ncc(CN2CCOCC2)n1CCCc1ccccc1,19.9
5,Cc1cccc(-n2nc(CC(C)C)nc2CCn2ccc(=O)[nH]c2=O)c1,-2.09
6,CC(C)c1cc(=O)[nH]c(-c2ccccc2CN2CCC(C)(C)C2)n1,5.1
7,Cc1cc(C2CCC2)nc(N2CCN(Cc3nccn3C)CC2)n1,-1.45
8,CN(C)CCNC(=O)CCC1CCN(C(=O)c2ccc(O)cn2)CC1,-6.92
9,CCOC(=O)CCNC(=O)N1CCOC(Cc2cccc(OC)c2)C1 (stereo not given),-9.71
10,O=C(Cc1ccc(F)cc1Cl)N[C@@H]1CCNC[C@H]1O,-6
11,Cc1ccc(OC2(C(=O)O)CCN(C(=O)c3cccc(F)c3)CC2)cn1,2.13
12,COCc1nnc(C(=O)N2CC(N3CCCCC3)C2)o1,-9.01
13,CCS(=O)(=O)N1CC[C@@H]2[C@@H](CCC(=O)N2CCc2ccccc2)C1,1.58
14,CC(C)CN1CCN(C)C(CCO)C1 (stereo not given),-8.39
15,CN(Cc1ccncn1)C(=O)CCc1[nH]nc2c1CCCC2,-5.7
16,Cc1n[nH]c(C)c1CCc1ccc(S(C)(=O)=O)cc1,-13.7
17,Cc1cccc(-n2nc(CC(C)C)nc2CCCC(N)=O)c1,-6.23
18,Cc1nnsc1CN1C[C@@H]2CC[C@H](C1)N(Cc1c(C)noc1C)C2=O,-0.902
19,Cc1ccsc1C(=O)N1CCC(c2nccn2Cc2ccncc2)CC1,-9.49
20,Nc1nc(CCC(=O)N2C[C@H](c3ccccc3)[C@@H](N)C2)cs1,-20.5
21,O=C(c1nc(=O)[nH]c2ccccc12)N1CCCC(CC2CC2)(C(=O)O)C1 (stereo not given),-8.79
22,O=C(NCc1nnc2n1CCC2)c1cn(-c2ccccc2)nn1,-5.59

row,Structure (SMILES),cytotoxicity at 70.5 h [%]
1,CN(C)Cc1cc(-c2nccn2CCn2cccn2)ccc1O,-11.1
2,O=c1n(CC2CCCO2)nc(CC2CCNCC2)n1-c1ccccc1 (stereo not given),-11
3,CN1CC2(CCNCC2)CC1C(=O)NCCCNc1cccnc1 (stereo not given),17.1
4,CCc1nc(N2CCC3(CCC(=O)N(Cc4ccncc4)C3)CC2)no1,10.6
5,COc1nccnc1N1CCC(C(=O)O)(n2ccc(C(C)(C)C)n2)CC1,-10.8
6,Cc1nc(C(=O)N2CCN(c3ccc(Cl)c(Cl)c3)CC2)cs1,-3.76
7,Cc1ncsc1CCN(C)C(=O)c1ncccc1O,-7.99
8,Cc1nn(C)c2nc(N(Cc3ccccc3)CC3CCCO3)sc12 (stereo not given),-11
9,Cc1ncc(CC(=O)N2CCC3(CCC(=O)N(C4CC4)C3)CC2)c(=O)[nH]1,5.88
10,Cc1cccc2cc(C(=O)N3CCN(S(=O)(=O)N(C)C)CC3)n(C)c12,1.01
11,CCc1nnc(CN2CCN(c3cccc(OC)c3)C(=O)C2)o1,12.1
12,Cc1nc2ccccc2nc1CN1CCn2nc(CCC(=O)O)cc2C1,-7.38
13,CCn1c(C2CCCN(Cc3cc(OC)cc(OC)c3)C2)nn(C)c1=O (stereo not given),-4.68
14,CCc1cc(N(C)Cc2cc[nH]n2)n2nc(C)c(C)c2n1,-4.44
15,CCCc1nc(C(=O)N2CCn3nc(C(=O)OC)cc3C2)cs1,16.6
16,CC(=O)N[C@@H]1CN(c2nc(C(N)=O)cs2)C[C@H]1c1ccc(C)o1,-15.3
17,Cn1ccnc1CN(CCO)C(=O)C1CCN(C(=O)C2CC2)CC1,0.876
18,Cc1[nH]c2c(C)ccc(C)c2c1CC(=O)NCC(O)c1cccnc1 (stereo not given),-10.2
19,CCc1cnc(N)nc1NCCCn1nc(C)nc1C,-9.39
20,COCCN1CCN(C(=O)c2ccc(COC)o2)[C@H]2CS(=O)(=O)C[C@H]21,11.2
21,CCNc1ccnc(NCC2(N(C)C)CCOCC2)n1,-5.81
22,Cc1nccn1CC1CCCN(Cc2ccc(-c3cccnc3)cc2)C1 (stereo not given),-9.2
